# Source: US9532997B2, “Compositions and methods for promoting intestinal stem cell function” (Whitehead Institute for Biomedical Research, priority 2012, dated 2017)
# “Also recorded” adds a separate entry of the source.
# Assays:
# [1] = test system: Lgr5^hi ISCs; assay: Frequency of Lgr5hi ISCs by flow cytometry in rapamycin-treated mice; format: in vivo; conditions: Rapamycin 4 mg/kg daily i.p., 4 weeks, n=13-14, FIG. 3g
# Text: Mice were housed in the Unit for Laboratory Animal Medicine at the Whitehead Institute for Biomedical Research. Lgr5-EGFP-IRES-CreERT2 mice (Strain name: B6.129P2-Lgr5tm1(cre/ERT2)Cle/J, Stock Number: 008875) were purchased from Jackson Laboratories. UbiquitinC-CreERT2 mice were obtained from the Jackson Laboratory (Strain Name: B6; 129S-Tg(UBC-cre/ERT2)1Ejb/J, Stock Number: 007001). Rictor floxed mice were generated as described in^27 and backcrossed to C57BL/6 for at least 6 generations. TSC1^loxp/loxp mice were the generous gift of D. Kwiatkowski (Harvard Medical School) and backcrossed to C57BL/6 for at least 6 generations. Rosa26-CreERT2 mice (Rosa26 or R26) were obtained from the Jackson Laboratory (Strain 15 Name: B6.129-Gt(ROSA)26Sor^iml(cre/ERT2)Tyj/J, Stock Number 008463). CR was achieved by providing individual or paired mice a daily portion of a chow diet fortified with vitamins and minerals amounting to 60% of the daily food intake of their ad libitum counterparts^20. All adult mice used in CR experiments were between the ages of 10 to 24 weeks and were sacrificed prior to their daily feeding. Rictor or TSC1 was excised by treatment with tamoxifen suspended in corn or sunflower seed oil (Spectrum) at a concentration of 10 mg/mL, and 200 μl per 25 g of body weight was injected intraperitoneally into mice once daily for 5-7 days. […]
# [2] = test system: cleaved caspase 3; assay: Enterocyte apoptosis, cleaved caspase 3 immunostain; format: in vivo, mice; conditions: n=3 per group, FIG. 7
# Protocol: (§1) Tissues were fixed in 10% formalin, paraffin embedded, and sectioned. Antigen retrieval was performed with Borg Decloaker RTU solution (Biocare Medical) in a pressurized Decloaking Chamber (Biocare Medical) for 3 minutes. Antibodies: rat anti-BrdU (1:2000; Abeam 6326), rabbit phospho-S6 Ser235/236 (1:500, CST 4858), rabbit cleaved caspase 3 (1:500; CST 9664), rabbit chromogranin A (1:3000, Abeam 15160), rabbit Lysozyme (1:2000; Thermo), rabbit Bst-1 (1:1000, Abeam 74301) and mouse Bst-1 (1:100 to 500, BD Pharmingen). For mouse Bst-1, the M.O.M (mouse on mouse) kit was used according to the manufacturer's instructions (Vector labs PK-2200). Biotin conjugated secondary donkey anti-rabbit or rat antibodies were used from Jackson ImmunoResearch. The Vectastain Elite ABC immunoperoxidase detection kit (Vector Labs PK-6101) followed by Dako Liquid DAB+ Substrate (Dako) was used for visualization. For immunofluorescence Alexa Fluor 568 secondary antibodies (Invitrogen) were used. All antibody incubations were performed with Common Antibody Diluent (Biogenex).
# [3] = test system: Lgr5hi ISCs combined with Paneth cells; assay: Organoid formation of Lgr5hi ISCs cocultured with Paneth cells from treated mice; format: in vivo; conditions: for organoid formation of ISCs combined with Paneth cells from rapamycin-treated mice vs vehicle/AL Paneth cells: n=3-5, FIG. 3l, FIG. 13c
# Text: (§2) Mice were housed in the Unit for Laboratory Animal Medicine at the Whitehead Institute for Biomedical Research. Lgr5-EGFP-IRES-CreERT2 mice (Strain name: B6.129P2-Lgr5tm1(cre/ERT2)Cle/J, Stock Number: 008875) were purchased from Jackson Laboratories. UbiquitinC-CreERT2 mice were obtained from the Jackson Laboratory (Strain Name: B6; 129S-Tg(UBC-cre/ERT2)1Ejb/J, Stock Number: 007001). Rictor floxed mice were generated as described in^27 and backcrossed to C57BL/6 for at least 6 generations. TSC1^loxp/loxp mice were the generous gift of D. Kwiatkowski (Harvard Medical School) and backcrossed to C57BL/6 for at least 6 generations. Rosa26-CreERT2 mice (Rosa26 or R26) were obtained from the Jackson Laboratory (Strain 15 Name: B6.129-Gt(ROSA)26Sor^iml(cre/ERT2)Tyj/J, Stock Number 008463). CR was achieved by providing individual or paired mice a daily portion of a chow diet fortified with vitamins and minerals amounting to 60% of the daily food intake of their ad libitum counterparts^20. All adult mice used in CR experiments were between the ages of 10 to 24 weeks and were sacrificed prior to their daily feeding. Rictor or TSC1 was excised by treatment with tamoxifen suspended in corn or sunflower seed oil (Spectrum) at a concentration of 10 mg/mL, and 200 μl per 25 g of body weight was injected intraperitoneally into mice once daily for 5-7 days. […] Mice were allowed to recover for at least 7 days after the last tamoxifen injection prior to any experiments. In vivo fate mapping in Lgr5-EGFP-IRES-reERT2; Rosa26loxpstoploxp-LacZ compound mice was done with a single injection of tamoxifen given at 200 μl per 25 g. As described previously^28, Rapamycin (LC Laboratories) was administered by intraperitoneal injection for 7 to 28 consecutive doses at 4 mg/kg. It was reconstituted in absolute ethanol at 10 mg/ml and diluted in 5% Tween-80 (Sigma) and 5% PEG-400 (Hampton Research) before injection. The final volume of all injections was 200 μl. Regular insulin (Lilly) was administered at 0.75 U/kg diluted in PBS 20 minutes prior to sacrificing fasted mice.
# Small intestines were removed and the fat/mesentery was dissected away. The intestinal lumen was washed with ice cold PBS (Mg—/Ca—) using a 18 G feeding needle (Roboz FN-7905) until the intestines appeared white/pink. They were then opened longitudinally. The mucous was removed by gently rubbing the intestine between fingers in cold PBS. The intestines were cut into 3 to 5 mm fragments and placed into 50 ml conical tubes that were fill with ice cold 30 ml of PBS (Mg—/Ca—)/EDTA (10 mM). The samples were incubated and shook intermittently on ice for 30 minutes continuously discarding and replacing (at least 3 times) the supernatant. The fragments were then continually resuspended with ice cold 30 ml PBS (Mg—/Ca—)/EDTA (10 mM) and intermittently shook on ice for 10 minutes, discarding the supernatant again for 3 times. The fragments were resuspended again with ice cold 30 ml PBS (Mg—/Ca—)/EDTA (10 mM) and incubated and intermittently shook while waiting on ice for 20 to 40 minutes. The samples were then triturated with a 10 ml pipette 1 to 2 times, and the contents were filtered twice through a 70-μm mesh (BD Falcon) into a 50 ml conical tube to remove villous material and tissue fragments. […] Crypts were removed from this step for crypt culture experiments and embedded in matrigel with crypt culture media. For ISC isolation, the crypt suspensions were centrifuged for 5 minutes at 250 g (4 C or room temperature). The pellets were gently resuspended in 1.0 ml of undiluted TrypLE Express (Invitrogen)+120 μl of DNase I (10 U/μl, Roche) and transferred to 15 ml conical tubes. The samples were incubated in a 32° C. water bath for 1.25 to 2 minutes, were not titurated, and were then placed on ice. 12 ml of cold SMEM was added to each sample and were gently triturated twice. The samples were then centrifuged for 5 minutes at 250 g.
# [4] = test system: intestinal crypts; assay: Organoid formation (clonogenicity) of intestinal crypts isolated from treated mice; format: in vivo
# Text: as §2
# Small intestines were removed and the fat/mesentery was dissected away. The intestinal lumen was washed with ice cold PBS (Mg—/Ca—) using a 18 G feeding needle (Roboz FN-7905) until the intestines appeared white/pink. They were then opened longitudinally. The mucous was removed by gently rubbing the intestine between fingers in cold PBS. The intestines were cut into 3 to 5 mm fragments and placed into 50 ml conical tubes that were fill with ice cold 30 ml of PBS (Mg—/Ca—)/EDTA (10 mM). The samples were incubated and shook intermittently on ice for 30 minutes continuously discarding and replacing (at least 3 times) the supernatant. […]
# [5] = test system: Bst-1; assay: Bst-1 protein expression by immunoblots of crypts and immunostains of Paneth cells; format: in vivo, mice; conditions: FIG. 4c
# Protocol: as §1
# Antibodies: rabbit anti phospho-T389 S6K1, phospho-S240/244 S6, S6K1, and S6 from CST; rabbit Bst-1 (ab74301) from Abeam; mouse anti_-actin (clone AC-15) from Sigma. […] Proteins extracts were denatured by the addition of sample buffer, boiled for […], resolved by SDS-PAGE, and analyzed by immunoblotting.
structure (smiles),measurement,setting,value
"CO[C@H]1C[C@@H]2CC[C@@H](C)[C@@](O)(O2)C(=O)C(=O)N2CCCC[C@H]2C(=O)O[C@H]([C@H](C)C[C@@H]2CC[C@@H](O)[C@H](OC)C2)CC(=O)[C@H](C)/C=C(\C)[C@@H](O)[C@@H](OC)C(=O)[C@H](C)C[C@H](C)/C=C/C=C/C=C/1C [Rapamycin, sirolimus]",increase in frequency of ISCs vs vehicle,[1],more than 1.5 fold
same,cleaved caspase 3 (enterocyte apoptosis) vs AL controls,[2],no increase
same,"organoids per AL Lgr5hi ISC mixed with Paneth cells from treated mice, increase vs vehicle",[3]; 4 mg/kg,~2 fold
same,effect of combination of CR and rapamycin in ISC-Paneth cell coculture,"[3]; CR+R treated mice, FIG. 3j",non-additive
same,direct effect on ISC function (clonogenicity of ISCs from treated vs vehicle mice),[3]; FIG. 3l,no direct effect on ISC function
same,secondary organoid bodies derived from rapamycin-treated Paneth cells vs vehicle,[3]; FIG. 3m,larger and more complex
same,stability of augmented capacity of Paneth cells to promote ISC self-renewal,[3]; Paneth cells placed in nutrient rich media that activates mTORC1,maintain their augmented capacity to promote ISC self-renewal
same,organoid formation of ISCs combined with Paneth cells from rapamycin-treated mice vs vehicle/AL Paneth cells,[3],significantly increased
same,organoid formation of ISCs combined with Paneth cells from rapamycin-treated mice vs vehicle/AL Paneth cells,[3]; listed as rapamycin,prominent increase; also recorded: significantly increased
same,effect of combination of CR and rapamycin on crypt organoid formation,"[4]; CR+R treated mice, FIG. 3i",non-additive
same,"organoids per intestinal crypt, increase vs vehicle-treated mice","[4]; crypts isolated from mice given 4 mg/kg daily, n=3-5, FIG. 3i",~2 fold
same,organoid body formation of crypts compared with CR,"[4]; mice treated for 1 week, FIG. 3i",as capable of forming organoid bodies as those from mice on CR
same,crypt clonogenicity after Rictor deletion (mTORC2 independence),"[4]; rapamycin 1 to 3 weeks after Rictor-deletion in Rictorfl/fl UBC-CreERT2 mice vs WT, FIG. 3k",increased the clonogenicity of crypts irrespective of whether they were isolated from adult intestines expressing or lacking Rictor; also recorded: increased crypt clonogenicity to a similar extent as those isolated from rapamycin treated wild-type (WT) mice
same,Bst-1 protein expression,"[5]; crypts (immunoblots) and Paneth cells (immunostains) of treated mice, d",increased
same,SDS-PAGE mobility of Bst-1,[5]; immunoblots of crypts,affected the SDS-PAGE mobility of Bst-1
